Our source for the MIC values is DBAASP.

Some test systems named below: Staphylococcus aureus; Enterococcus faecium; Candida albicans; Escherichia coli UB1005; Escherichia coli; Acinetobacter baumannii; Pseudomonas aeruginosa.
Test in all cases: ≥ marks a high value that may be exact or a test limit, other limits are often not marked, values filed in µg/mL are converted to µM
Test [1] has as its system Staphylococcus aureus KCTC 1621.
The test system of test [2] is Bacillus subtilis KCTC 3068.
In test [3] the test system is Salmonella typhimurium KCTC 1926.
The subject of test [4] is Escherichia coli KCTC 1682.
The test system of test [5] is Staphylococcus epidermidis.
The subject of test [6] is Staphylococcus aureus ATCC 25923.
For test [7], the system named is Enterococcus faecalis ATCC 29212.
The test system of test [8] is Pseudomonas aeruginosa H103.
For test [9], the system named is Salmonella enterica serovar Typhimurium.
Test [10] deals with Escherichia coli ATCC 25922.
Test [11] has as its system Pseudomonas aeruginosa PAO1.
Test [12] has as its system Candida albicans NCYC 1467.
Test [13] relates to Staphylococcus aureus NCTC 10788.
In test [14] the test system is Staphylococcus epidermidis ATCC 12228.
In test [15] the test system is Staphylococcus aureus ATCC 29213.
Test [16] relates to Salmonella enterica subsp. enterica serovar Typhimurium C77-31.
The test system of test [17] is Staphylococcus epidermidis KCTC 1917.
For test [18], the system named is Pseudomonas aeruginosa KCTC 1637.
The subject of test [19] is Escherichia coli NCTC 10418.

Molecules are shown by their SMILES. In brackets after ≈: the same amount, converted by molar mass.

Regarding `NC(=O)[C@H](CCCN=C(N)N)NC(=O)[C@H](CCCN=C(N)N)NC(=O)[C@H](Cc1c[nH]c2ccccc12)NC(=O)[C@@H]1CCCN1C(=O)[C@H](Cc1c[nH]c2ccccc12)NC(=O)[C@H](Cc1c[nH]c2ccccc12)NC(=O)[C@@H]1CCCN1C(=O)[C@H](Cc1c[nH]c2ccccc12)NC(=O)[C@H](CCCN=C(N)N)NC(=O)[C@@H](N)CCCN=C(N)N` [RRWPWWPWRR], the MIC in [1] was 1.26 µM (≈ 2 µg/mL); against Staphylococcus aureus, 2.53 µM (≈ 4 µg/mL); in test [2], 1.26 µM (≈ 2 µg/mL); in [3] it was 2.53 µM (≈ 4 µg/mL); in [4] it was 1.26 µM (≈ 2 µg/mL); in the test on Enterococcus faecium it was 1.79 µM (≈ 2.83 µg/mL).

With `CC[C@H](C)[C@H](NC(=O)[C@H](CCCN=C(N)N)NC(=O)[C@H](CCCN=C(N)N)NC(=O)[C@H](CC(C)C)NC(=O)[C@@H](N)CCCN=C(N)N)C(=O)N[C@H](C(=O)N[C@H](C(=O)N[C@H](C(=O)N[C@@H](CCCN=C(N)N)C(=O)N[C@H](C(=O)N[C@@H](Cc1ccccc1)C(=O)N[C@@H](CCCN=C(N)N)C(=O)O)C(C)C)[C@@H](C)CC)C(C)C)C(C)C` [RLRRIVVIRVFR], the MIC in test [5] was determined as 0.5 µM (≈ 0.792 µg/mL); in test [6] it was 1 µM (≈ 1.58 µg/mL); in test [7], 2 µM (≈ 3.17 µg/mL); against Candida albicans it was 16 µM (≈ 25.3 µg/mL); in test [8], 8 µM (≈ 12.7 µg/mL); in the test with Escherichia coli UB1005 it was 4 µM (≈ 6.33 µg/mL). The MIC in [9] was found to be 4 µM (≈ 6.33 µg/mL).

Take `CC[C@H](C)[C@H](NC(=O)[C@H](CCCN=C(N)N)NC(=O)[C@H](Cc1c[nH]c2ccccc12)NC(=O)[C@H](CCC(N)=O)NC(=O)[C@@H](N)CCCCN)C(=O)N[C@@H](CCCN=C(N)N)C(=O)N[C@H](C(=O)N[C@@H](C)C(=O)N[C@H](C(=O)N[C@H](C(=O)N[C@@H](CCCN=C(N)N)C(=O)N[C@@H](C)C(=O)O)[C@@H](C)CC)C(C)C)C(C)C` [KQWRIRVAVIRA]: the MIC in test [6] is 21.4 µM (≈ 32 µg/mL); in test [10], 21.4 µM (≈ 32 µg/mL); in [11] it was 85.6 µM (≈ 128 µg/mL); in [9], no less than 42.8 µM.

Regarding `CC[C@H](C)[C@H](NC(=O)[C@H](C)NC(=O)[C@H](CC(C)C)NC(=O)[C@@H]1CCCN1C(=O)[C@@H](NC(=O)[C@H](CCSC)NC(=O)CNC(=O)[C@H](CC(C)C)NC(=O)[C@@H](N)CC(C)C)[C@@H](C)CC)C(=O)N[C@@H](CO)C(=O)N[C@@H](C)C(=O)N[C@H](C(=O)N[C@@H](CO)C(=O)N[C@@H](CO)C(=O)N[C@@H](CC(C)C)C(=O)N[C@@H](CO)C(=O)N[C@@H](CCCCN)C(=O)N[C@@H](CC(C)C)C(N)=O)[C@@H](C)CC` [LLGMIPLAISAISSLSKL], the MIC in test [12] was no less than 35 µM; in test [13], 17.5 µM (≈ 32 µg/mL).

Turning to `CC(C)[C@H](NC(=O)[C@H](CCCN=C(N)N)NC(=O)[C@H](Cc1c[nH]c2ccccc12)NC(=O)[C@H](CCCN=C(N)N)NC(=O)[C@@H](NC(=O)[C@H](CCCCN)NC(=O)[C@H](Cc1c[nH]c2ccccc12)NC(=O)[C@H](CCCN=C(N)N)NC(=O)[C@@H](NC(=O)[C@H](CCCN=C(N)N)NC(=O)[C@@H](N)Cc1c[nH]c2ccccc12)C(C)C)[C@@H](C)O)C(=O)N[C@@H](CCCCN)C(N)=O` [WRVRWKTRWRVK], the MIC amounted to 4 µM (≈ 7.02 µg/mL) in test [14]; 4 µM (≈ 7.02 µg/mL) in test [6]; 4 µM (≈ 7.02 µg/mL) in the test on Staphylococcus aureus; 4 µM (≈ 7.02 µg/mL) in test [10]; 4 µM (≈ 7.02 µg/mL) in the test on Escherichia coli; 8 µM (≈ 14 µg/mL) against Acinetobacter baumannii. The MIC in test [15] stood at 2 µM (≈ 3.51 µg/mL); in the test on Pseudomonas aeruginosa, 32 µM (≈ 56.2 µg/mL); against Escherichia coli UB1005 it was 2 µM (≈ 3.51 µg/mL); in [16], 4 µM (≈ 7.02 µg/mL).

In the case of `CC[C@H](C)[C@H](NC(=O)[C@@H](NC(=O)[C@H](Cc1c[nH]c2ccccc12)NC(=O)[C@@H](NC(=O)[C@@H](N)CCCCN)[C@@H](C)CC)C(C)C)C(=O)N[C@@H](CCCN=C(N)N)C(=O)N[C@@H](Cc1c[nH]c2ccccc12)C(=O)N[C@@H](CCCN=C(N)N)C(N)=O` [KIWVIRWR], the MIC is 3.46 µM (≈ 4 µg/mL) in test [5]; 13.8 µM (≈ 16 µg/mL) in test [6]; 13.8 µM (≈ 16 µg/mL) in test [7]; 13.8 µM (≈ 16 µg/mL) in the test on Candida albicans; 13.8 µM (≈ 16 µg/mL) in [8]; 6.92 µM (≈ 7.99 µg/mL) with Escherichia coli UB1005. Besides, the MIC in test [9] is 26.8 µM (≈ 31 µg/mL).

`CC[C@H](C)[C@H](NC(=O)[C@H](CCCN=C(N)N)NC(=O)[C@@H](NC(=O)[C@H](Cc1c[nH]c2ccccc12)NC(=O)[C@H](Cc1c[nH]c2ccccc12)NC(=O)[C@@H](N)CCCN=C(N)N)[C@@H](C)CC)C(=O)N[C@@H](CCCN=C(N)N)C(=O)N[C@@H](Cc1c[nH]c2ccccc12)C(=O)N[C@@H](Cc1cnc[nH]1)C(=O)O` [RWWIRIRWH]: the MIC in test [5] is 1.3 µM (≈ 1.83 µg/mL); in test [6], 1.3 µM (≈ 1.83 µg/mL); in test [7] it was 2.7 µM (≈ 3.8 µg/mL); against Candida albicans, 10.7 µM (≈ 15.1 µg/mL); in test [8], 10.7 µM (≈ 15.1 µg/mL); against Escherichia coli UB1005, 1.3 µM (≈ 1.83 µg/mL). In [9], the MIC turned out to be 2.7 µM (≈ 3.8 µg/mL).

For the compound `C[C@@H](O)[C@H](NC(=O)[C@H](Cc1c[nH]c2ccccc12)NC(=O)[C@H](Cc1c[nH]c2ccccc12)NC(=O)[C@@H](NC(=O)[C@H](CCCCN)NC(=O)[C@H](Cc1c[nH]c2ccccc12)NC(=O)[C@H](Cc1c[nH]c2ccccc12)NC(=O)[C@@H](NC(=O)[C@H](CCCCN)NC(=O)[C@@H](N)CCCCN)[C@@H](C)O)[C@@H](C)O)C(=O)N[C@@H](CCCCN)C(=O)N[C@@H](Cc1c[nH]c2ccccc12)C(=O)O` [KKTWWKTWWTKW], the MIC in test [1] is 4 µM (≈ 7.06 µg/mL); in test [17] it was 4 µM (≈ 7.06 µg/mL); in test [2], 2 µM (≈ 3.53 µg/mL); in test [3], 4 µM (≈ 7.06 µg/mL); in test [4], 4 µM (≈ 7.06 µg/mL); in test [18], 8 µM (≈ 14.1 µg/mL).

Take `CC[C@H](C)[C@H](NC(=O)[C@H](CC(=O)O)NC(=O)[C@H](CCCCN)NC(=O)[C@H](Cc1c[nH]c2ccccc12)NC(=O)[C@H](CC(C)C)NC(=O)[C@H](C)N)C(=O)N[C@@H](CC(C)C)C(=O)N[C@@H](CCCCN)C(=O)N[C@@H](CC(N)=O)C(=O)N[C@@H](CC(C)C)C(=O)N[C@@H](CC(C)C)C(=O)N[C@@H](CCCCN)C(=O)N[C@@H](C)C(=O)N[C@@H](C)C(=O)N[C@@H](CC(C)C)C(=O)N[C@@H](CC(N)=O)C(=O)N[C@@H](CCC(=O)O)C(=O)N[C@H](C(=O)N[C@@H](CC(N)=O)C(=O)N[C@@H](CCC(N)=O)C(=O)N[C@H](C(=O)N[C@H](C(=O)N[C@@H](CCC(N)=O)C(N)=O)C(C)C)[C@@H](C)CC)[C@@H](C)CC` [ALWKDILKNLLKAALNEINQIVQ]: the MIC stood at 16 µM (≈ 42.4 µg/mL) in test [12], 16 µM (≈ 42.4 µg/mL) in [19] and 8 µM (≈ 21.2 µg/mL) in [13].

`CC[C@H](C)[C@H](NC(=O)[C@@H](NC(=O)[C@@H](NC(=O)[C@H](CCCN=C(N)N)NC(=O)[C@H](CCCN=C(N)N)NC(=O)[C@H](CCC(N)=O)NC(=O)[C@@H](N)CCCN=C(N)N)C(C)C)C(C)C)C(=O)N[C@@H](Cc1c[nH]c2ccccc12)C(=O)N[C@@H](Cc1c[nH]c2ccccc12)C(=O)O` [RQRRVVIWW]: the MIC in test [5] was 1.3 µM (≈ 1.69 µg/mL); in test [6] it was 2.7 µM (≈ 3.51 µg/mL); in test [7], 5.3 µM (≈ 6.88 µg/mL); with Candida albicans, 21.4 µM (≈ 27.8 µg/mL); in [8], 10.7 µM (≈ 13.9 µg/mL); in the test with Escherichia coli UB1005 it was 1.3 µM (≈ 1.69 µg/mL). The same compound gave an MIC in test [9] of 5.3 µM (≈ 6.88 µg/mL).

In the case of `CC[C@H](C)[C@H](NC(=O)[C@H](CCCCN)NC(=O)[C@H](CC(C)C)NC(=O)[C@H](CC(C)C)NC(=O)[C@@H](N)CCCCN)C(=O)N[C@H](C(=O)N[C@H](C(=O)N[C@H](C(=O)N[C@@H](CCCCN)C(=O)N[C@H](C(=O)N[C@@H](CC(C)C)C(=O)N[C@@H](CCCCN)C(N)=O)C(C)C)[C@@H](C)CC)C(C)C)C(C)C` [KLLKIVVIKVLK], the MIC in test [1] turned out to be 8.97 µM (≈ 12.5 µg/mL); in test [17] it was 8.97 µM (≈ 12.5 µg/mL); in [2], 8.97 µM (≈ 12.5 µg/mL); in test [3], 4.48 µM (≈ 6.25 µg/mL); in test [4], 8.97 µM (≈ 12.5 µg/mL); in test [18], 8.97 µM (≈ 12.5 µg/mL).
